Measured values: the NIST ThermoML archive (doi:10.1016/j.jct.2013.10.034)

Assay: xn = mol fraction of the nth substance listed
Details: 100 kPa, Liquid; for viscosity: Falling or rolling sphere viscometry; for mass density: Vibrating tube method

CCCC[N+]1(C)CCCC1.N#CN=C=[N-] [1-butyl-1-methylpyrrolidinium dicyanamide] + O
Details	mass density [kg/m3]	viscosity [mPa·s]
298.15 K, x1 = 0.0729	1007.24	4.316
298.15 K, x1 = 0.1652	1012.47	7.983
298.15 K, x1 = 0.2234	1014.18	9.939
298.15 K, x1 = 0.3163	1015.68	12.88
298.15 K, x1 = 0.3548	1016.11	13.94
298.15 K, x1 = 0.4198	1016.65	15.86
298.15 K, x1 = 0.4762	1016.99	17.41
298.15 K, x1 = 0.5239	1017.27	18.57
298.15 K, x1 = 0.6244	1017.71	21.49
298.15 K, x1 = 0.629	1017.73	21.62
298.15 K, x1 = 0.711	1018.09	24.03
298.15 K, x1 = 0.7413	1018.22	24.99
298.15 K, x1 = 0.8776	1018.79	29.68
298.15 K, x1 = 0.9732	1019.13	33.6
298.15 K, x1 = 1	1019.2	34.74
303.15 K, x1 = 0.0729	1004.74	3.713
303.15 K, x1 = 0.1652	1009.29	6.795
303.15 K, x1 = 0.2234	1010.84	8.502
303.15 K, x1 = 0.3163	1012.43	11.02
303.15 K, x1 = 0.3548	1012.9	11.96
303.15 K, x1 = 0.4198	1013.55	13.57
303.15 K, x1 = 0.4762	1014	14.9
303.15 K, x1 = 0.5239	1014.32	15.9
303.15 K, x1 = 0.6244	1014.87	18.37
303.15 K, x1 = 0.629	1014.89	18.48
303.15 K, x1 = 0.711	1015.28	20.5
303.15 K, x1 = 0.7413	1015.41	21.31
303.15 K, x1 = 0.8776	1015.96	25.19
303.15 K, x1 = 0.9732	1016.28	28.4
303.15 K, x1 = 1	1016.38	29.33
308.15 K, x1 = 0.0729	1001.6	3.226
308.15 K, x1 = 0.1652	1006.1	5.903
308.15 K, x1 = 0.2234	1007.7	7.346
308.15 K, x1 = 0.3163	1009.37	9.521
308.15 K, x1 = 0.3548	1009.87	10.37
308.15 K, x1 = 0.4198	1010.57	11.73
308.15 K, x1 = 0.4762	1011.05	12.88
308.15 K, x1 = 0.5239	1011.4	13.75
308.15 K, x1 = 0.6244	1011.99	15.87
308.15 K, x1 = 0.629	1012.02	15.96
308.15 K, x1 = 0.711	1012.42	17.69
308.15 K, x1 = 0.7413	1012.56	18.34
308.15 K, x1 = 0.8776	1013.13	21.64
308.15 K, x1 = 0.9732	1013.47	24.32
308.15 K, x1 = 1	1013.58	25.09
313.15 K, x1 = 0.0729	998.69	2.83
313.15 K, x1 = 0.1652	1002.9	5.143
313.15 K, x1 = 0.2234	1004.59	6.408
313.15 K, x1 = 0.3163	1006.34	8.303
313.15 K, x1 = 0.3548	1006.88	9
313.15 K, x1 = 0.4198	1007.61	10.23
313.15 K, x1 = 0.4762	1008.11	11.23
313.15 K, x1 = 0.5239	1008.46	12
313.15 K, x1 = 0.6244	1009.1	13.83
313.15 K, x1 = 0.629	1009.13	13.91
313.15 K, x1 = 0.711	1009.55	15.4
313.15 K, x1 = 0.7413	1009.72	15.98
313.15 K, x1 = 0.8776	1010.35	18.78
313.15 K, x1 = 0.9732	1010.72	21.05
313.15 K, x1 = 1	1010.79	21.7
318.15 K, x1 = 0.0729	995.65	2.5
318.15 K, x1 = 0.1652	999.68	4.486
318.15 K, x1 = 0.2234	1001.37	5.632
318.15 K, x1 = 0.3163	1003.18	7.302
318.15 K, x1 = 0.3548	1003.78	7.982
318.15 K, x1 = 0.4198	1004.58	9.005
318.15 K, x1 = 0.4762	1005.15	9.9
318.15 K, x1 = 0.5239	1005.54	10.57
318.15 K, x1 = 0.6244	1006.25	12.17
318.15 K, x1 = 0.629	1006.28	12.24
318.15 K, x1 = 0.711	1006.71	13.55
318.15 K, x1 = 0.7413	1006.88	14.02
318.15 K, x1 = 0.8776	1007.51	16.46
318.15 K, x1 = 0.9732	1007.94	18.4
318.15 K, x1 = 1	1008	18.95
323.15 K, x1 = 0.0729	992.46	2.233
323.15 K, x1 = 0.1652	996.43	3.985
323.15 K, x1 = 0.2234	998.16	4.99
323.15 K, x1 = 0.3163	1000.13	6.467
323.15 K, x1 = 0.3548	1000.71	7.043
323.15 K, x1 = 0.4198	1001.58	7.978
323.15 K, x1 = 0.4762	1002.18	8.763
323.15 K, x1 = 0.5239	1002.64	9.377
323.15 K, x1 = 0.6244	1003.38	10.79
323.15 K, x1 = 0.629	1003.41	10.85
323.15 K, x1 = 0.711	1003.92	12
323.15 K, x1 = 0.7413	1004.07	12.45
323.15 K, x1 = 0.8776	1004.69	14.56
323.15 K, x1 = 0.9732	1005.09	16.24
323.15 K, x1 = 1	1005.23	16.72
328.15 K, x1 = 0.0729	989.39	2.005
328.15 K, x1 = 0.1652	993.17	3.59
328.15 K, x1 = 0.2234	994.93	4.448
328.15 K, x1 = 0.3163	997.04	5.765
328.15 K, x1 = 0.3548	997.72	6.295
328.15 K, x1 = 0.4198	998.6	7.116
328.15 K, x1 = 0.4762	999.26	7.819
328.15 K, x1 = 0.5239	999.74	8.369
328.15 K, x1 = 0.6244	1000.55	9.629
328.15 K, x1 = 0.629	1000.57	9.685
328.15 K, x1 = 0.711	1001.11	10.71
328.15 K, x1 = 0.7413	1001.26	11.1
328.15 K, x1 = 0.8776	1001.89	12.96
328.15 K, x1 = 0.9732	1002.31	14.43
328.15 K, x1 = 1	1002.48	14.84
333.15 K, x1 = 0.0729	985.91	1.807
333.15 K, x1 = 0.1652	989.89	3.196
333.15 K, x1 = 0.2234	991.81	3.98
333.15 K, x1 = 0.3163	994.04	5.16
333.15 K, x1 = 0.3548	994.76	5.643
333.15 K, x1 = 0.4198	995.72	6.375
333.15 K, x1 = 0.4762	996.34	7.009
333.15 K, x1 = 0.5239	996.85	7.517
333.15 K, x1 = 0.6244	997.67	8.64
333.15 K, x1 = 0.629	997.7	8.691
333.15 K, x1 = 0.711	998.24	9.609
333.15 K, x1 = 0.7413	998.46	9.96
333.15 K, x1 = 0.8776	999.13	11.62
333.15 K, x1 = 0.9732	999.61	12.92
333.15 K, x1 = 1	999.74	13.28
338.15 K, x1 = 0.0729	982.26	1.642
338.15 K, x1 = 0.1652	986.61	2.892
338.15 K, x1 = 0.2234	988.61	3.587
338.15 K, x1 = 0.3163	990.99	4.649
338.15 K, x1 = 0.3548	991.74	5.083
338.15 K, x1 = 0.4198	992.73	5.746
338.15 K, x1 = 0.4762	993.46	6.319
338.15 K, x1 = 0.5239	993.96	6.784
338.15 K, x1 = 0.6244	994.85	7.795
338.15 K, x1 = 0.629	994.9	7.841
338.15 K, x1 = 0.711	995.49	8.671
338.15 K, x1 = 0.7413	995.67	9
338.15 K, x1 = 0.8776	996.49	10.48
338.15 K, x1 = 0.9732	996.91	11.64
338.15 K, x1 = 1	997	11.96
343.15 K, x1 = 0.0729	979.39	1.496
343.15 K, x1 = 0.1652	983.31	2.593
343.15 K, x1 = 0.2234	985.46	3.24
343.15 K, x1 = 0.3163	988.01	4.199
343.15 K, x1 = 0.3548	988.75	4.587
343.15 K, x1 = 0.4198	989.8	5.195
343.15 K, x1 = 0.4762	990.47	5.717
343.15 K, x1 = 0.5239	991.03	6.142
343.15 K, x1 = 0.6244	991.95	7.061
343.15 K, x1 = 0.629	991.96	7.103
343.15 K, x1 = 0.711	992.62	7.857
343.15 K, x1 = 0.7413	992.85	8.116
343.15 K, x1 = 0.8776	993.62	9.492
343.15 K, x1 = 0.9732	994.09	10.53
343.15 K, x1 = 1	994.28	10.82
